# According to paper PMC9306587 (European Journal of Immunology, 2022):
# Legend:
# [1] = molecular target: T1, HLA-E*01:03 (Homo sapiens, UniProt P13747); assay: pHLA-E complex stability by SPR (ILT2 binding over time); conditions: for t1/2: Table S2, SPR BIAcore T200, biotinylated pHLA-E monomers on streptavidin CM5 chip, 1 μM soluble ILT2 at regular intervals over 5 h, 25°C
# T1 construct: made in house
# Experimental: HLA‐E heavy chain (without transmembrane domain and with or without a C‐terminal biotinylation tag, AviTagsequence) and β2m were expressed and refolded with the peptide of interest and subsequently purified, as previously described. To biotinylate complexes prior to size exclusion chromatography, complexes were AviTag treated with biotin‐protein ligase (BirA) according to the manufacturer's instructions (Avidity BirA‐500 kit).
# The stability of all pHLA‐E complexes was assessed by SPR using a BIAcore T200 instrument. Purified biotinylated pHLA‐E monomers (HLA‐E*01:03 was used throughout) were immobilized onto a streptavidin‐coupled CM5 sensor chip. A total of 1 μM of soluble ILT2 was flowed over the chip at 10 μL/min for 60 s. ILT2 binding to pHLA‐E complexes was measured at regular intervals over 5 h and responses were normalized by subtracting the bulk buffer response of a control flow cell containing no pHLA. Binding t 1/2 was calculated by plotting % activity against time using the Biacore T200 evaluation software version 3.0 and GraphPad Prism version 8.3.0.
# [2] = molecular target: T1, HLA-E*01:03; assay: pHLA Thermofluor (thermal shift) assay; type: binding; conditions: Table S2; SYPRO Orange thermal shift, pHLA 0.25 mg/mL in PBS, 10 to 95°C at 1°C/min, triplicate; two independent experiments
# Experimental: Thermal shift assay experiments were performed using a RT‐PCR instrument (Quantstudio 6, Applied Biosystems). SYPRO Orange protein gel stain (5000× stock solution) was diluted in PBS to yield a 75× working solution. In a 96‐well plate, 23 μL of pHLA at 0.25 mg/mL was added to 2 μL of SYPRO Orange working solution to a final volume of 25 μL, with each pHLA prepared in triplicate. Mixtures were heated from 10 to 95°C with a temperature increment of 1°C/min. Fluorescence was detected using the FAM filter set, with excitation and emission wavelength at 495 and 518 nm, respectively. Data analysis was performed using Protein Thermal Shift Software version 1.4 (Thermofisher Scientific) to determine Tm.
# [3] = molecular target: T2, HLA-ES147C (Homo sapiens, UniProt P13747, S168C); type: binding
# T2 construct: made in house
sequence,measurement,setting,value
VMAPRTLLL [LA13-11],t1/2,[1],2.8 h
same,t1/2,[1]; representative of at least two independent experiments,2.8 h
same,t1/2(hours) HLA-E,"[1]; Table S4, SPR with ILT2 over 5 h",2.8 h
same,Average Tm,[2],47.87 °C
same,t1/2(hours) HLA-ES147C(H3C),[3],16.74 h
